Results: the NIST ThermoML archive (doi:10.1021/je0601513)

Assay: refractive index (Na D-line) (dimensionless); xn = mol fraction of the nth substance listed
Settings: 101 kPa, Liquid, Standard Abbe refractometry

C[S+](C)[O-] [dimethyl sulfoxide] + CCCO
Settings | refractive index
288.15 K, x1 = 0.0533 | 1.3942
288.15 K, x1 = 0.0938 | 1.3979
288.15 K, x1 = 0.1708 | 1.405
288.15 K, x1 = 0.2592 | 1.4132
288.15 K, x1 = 0.346 | 1.4212
288.15 K, x1 = 0.4294 | 1.429
288.15 K, x1 = 0.5115 | 1.4367
288.15 K, x1 = 0.5981 | 1.4449
288.15 K, x1 = 0.6853 | 1.4532
288.15 K, x1 = 0.7596 | 1.4603
288.15 K, x1 = 0.8438 | 1.4685
288.15 K, x1 = 0.9368 | 1.4774
298.15 K, x1 = 0.0554 | 1.3889
298.15 K, x1 = 0.1366 | 1.3966
298.15 K, x1 = 0.22 | 1.4045
298.15 K, x1 = 0.2987 | 1.4119
298.15 K, x1 = 0.4289 | 1.4239
298.15 K, x1 = 0.5022 | 1.4307
298.15 K, x1 = 0.5992 | 1.4398
298.15 K, x1 = 0.677 | 1.4472
298.15 K, x1 = 0.7656 | 1.4558
298.15 K, x1 = 0.8358 | 1.4627
298.15 K, x1 = 0.9181 | 1.4705
298.15 K, x1 = 0.9646 | 1.4747
308.15 K, x1 = 0.0537 | 1.3843
308.15 K, x1 = 0.1336 | 1.3916
308.15 K, x1 = 0.2147 | 1.3991
308.15 K, x1 = 0.2987 | 1.407
308.15 K, x1 = 0.3876 | 1.4152
308.15 K, x1 = 0.4707 | 1.4229
308.15 K, x1 = 0.5552 | 1.4308
308.15 K, x1 = 0.6418 | 1.4389
308.15 K, x1 = 0.7191 | 1.4462
308.15 K, x1 = 0.7998 | 1.454
308.15 K, x1 = 0.877 | 1.4614
308.15 K, x1 = 0.965 | 1.4698
